For 1 molecule, Histamine released results are on record in patent publication US20060141067A1, “Anti-allergic herbal formulation” (priority 2004, published 2006).

This experiment concerns mast cell. As to the kind of experiment: Mast cell degranulation in rats (histamine released). Format: in vivo. As to conditions: 25 mg/kg p.o., mean ± S.E.M. As to the method:
Mast cell degranulation: Tyrode solution (10 ml) containing 5 units/ml of heparin was injected in the peritoneal cavity of sensitized male rats lightly anaesthetized with ether. After a gentle abdominal massage for about 30 to 45 sec, the mast cell rich peritoneal fluid was collected over ice and centrifuged at 2000 rpm for 5 min. The cells were washed thrice with chilled Tyrode and resuspended in about 1 ml of Tyrode solution. The peritoneal fluid was obtained from 10 rats and the final volume of the fluid was pooled and used for the studies (Nair A M et al, 1997).

The structures appear in SMILES notation. Marks after values point to notes of the source that are not given here.

As for `CN(C)CCC(c1ccccc1)c1ccccn1.O=C(O)/C=C\C(=O)O` (stereo not shown) [Avil], the Histamine released is listed as 0.345 ± 0.04^b μg/ml.
